Measurements as given in patent US7812008B2, “9-substituted tetracyclines” (Wyeth LLC, priority 2005, dated 2010).
≈ marks a conversion by molar mass, not a printed value. Like-named read-outs stand apart in the source and are kept apart here.

Key:
[1] = test system: E. faecalis GC4555 (ATCC Control); assay: MIC broth microdilution, E. faecalis GC4555 (ATCC Control); type: cell-based; conditions: MHBII, 18-22 hours at 35° C.
Experimental: (§1) Methods for in Vitro Antibacterial Evaluation
(§2) The minimum inhibitory concentration (MIC)
(§3) Antimicrobial susceptibility testing. The in vitro activities of representative examples of antibiotics of the invention are determined by the broth microdilution method as recommended by the National Committee for Clinical Laboratory Standards (NCCLS) (1). Mueller-Hinton II broth (MHBII)(BBL Cockeysville, Md.) is the medium employed in the testing procedures. Microtiter plates containing serial dilutions of each antimicrobial agent are inoculated with each organism to yield the appropriate density (10^5 CFU/ml) in a 100 μl final volume. The plates are incubated for 18-22 hours at 35° C. in ambient air. […] NCCLS. 2000. Methods for Dilution Antimicrobial Susceptibility Tests for Bacteria That Grow Aerobically; Approved Standards: M7-A5, vol. 20. National Committe for Clinical Laboratory Standards, Wayne, Pa.

[2] = test system: E. coli GC2203 (ATCC Control); assay: MIC broth microdilution, E. coli GC2203 (ATCC Control); type: cell-based; conditions: MHBII, 18-22 hours at 35° C.
Experimental: as §1, §2, §3

[3] = test system: E. coli GC4560 (IMP mutant); assay: MIC broth microdilution, E. coli GC4560 (IMP mutant); type: cell-based; conditions: MHBII, 18-22 hours at 35° C.
Experimental: as §1, §2, §3

E. coli GC2270 (tet(M)) = assay: MIC broth microdilution, E. coli GC2270 (tet(M)); type: cell-based; conditions: MHBII, 18-22 hours at 35° C.
Experimental: as §1, §2, §3

[4] = test system: Staphylococcal aureus Smith M P; assay: MIC reported in Table 2 beside the in vivo ED50; type: cell-based; conditions: Staphylococcus aureus, infecting strain S. aureus Smith MP
Experimental: Antimicrobial susceptibility testing. The in vitro activities of representative examples of antibiotics of the invention are determined by the broth microdilution method as recommended by the National Committee for Clinical Laboratory Standards (NCCLS) (1). Mueller-Hinton II broth (MHBII)(BBL Cockeysville, Md.) is the medium employed in the testing procedures. Microtiter plates containing serial dilutions of each antimicrobial agent are inoculated with each organism to yield the appropriate density (10^5 CFU/ml) in a 100 μl final volume. The plates are incubated for 18-22 hours at 35° C. in ambient air. […] NCCLS. 2000. Methods for Dilution Antimicrobial Susceptibility Tests for Bacteria That Grow Aerobically; Approved Standards: M7-A5, vol. 20. National Committe for Clinical Laboratory Standards, Wayne, Pa. In Vivo Antibacterial Evaluation: The therapeutic effects of representative examples of the invention are determined against acute lethal infection with Staphylococcal aureus Smith M P, Female mice, strain CD-1 (Charles River Laboratoties), ca. 20 grams, are challenged by an intraperitoneal injection of sufficient bacteria (suspended in broth or hog mucin) to kill non-treated controls within 24-28 hours. Antibacterial agents, contained in 0.5 ml of 0.2% aqueous agar, are administered subcutaneously or orally 30 minutes after injection. When an oral dosing schedule is used, animal are deprived of food for 5 hours before and 2 hours after injection. Five mice are treated at each dose level. The 7 day survival ratios from 3 separate tests are pooled for calculation of median effective dose (ED50).

[5] = test system: C. albicans GC3066 ATCC (Control); assay: MIC broth microdilution, C. albicans GC3066 ATCC (Control); type: cell-based; conditions: 18-22 hours at 35° C.
Experimental: as §1, §2, §3

[6] = test system: S. aureus GC1079 (tet(K)); assay: MIC broth microdilution, S. aureus GC1079 (tet(K)); type: cell-based; conditions: MHBII, 18-22 hours at 35° C.
Experimental: as §1, §2, §3

E. coli GC1073 (tet(B)) = assay: MIC broth microdilution, E. coli GC1073 (tet(B)); type: cell-based; conditions: MHBII, 18-22 hours at 35° C.
Experimental: as §1, §2, §3

[7] = test system: M. catarrhalis* GC6907 (Clinical); assay: MIC broth microdilution, M. catarrhalis GC6907 (Clinical); type: cell-based; conditions: 18-22 hours at 35° C.
Experimental: as §1, §2, §3

[8] = test system: E. faecalis GC2267 (tet(L) + (M) + (S)); assay: MIC broth microdilution, E. faecalis GC2267 (tet(L) + (M) + (S)); type: cell-based; conditions: MHBII, 18-22 hours at 35° C.
Experimental: as §1, §2, §3

[9] = test system: H. influenzae<> GC6896 (ATCC Control); assay: MIC broth microdilution, H. influenzae GC6896 (ATCC Control); type: cell-based; conditions: 18-22 hours at 35° C.
Experimental: as §1, §2, §3

[10] = test system: S. aureus GC6467 (tet(M) + (K)); assay: MIC broth microdilution, S. aureus GC6467 (tet(M) + (K)); type: cell-based; conditions: MHBII, 18-22 hours at 35° C.
Experimental: as §1, §2, §3

[11] = test system: S. aureus GC6466 (tet(M)); assay: MIC broth microdilution, S. aureus GC6466 (tet(M)); type: cell-based; conditions: MHBII, 18-22 hours at 35° C.
Experimental: as §1, §2, §3

[12] = test system: S. pneumoniae* GC1894 (Clinical); assay: MIC broth microdilution, S. pneumoniae GC1894 (Clinical); type: cell-based; conditions: 18-22 hours at 35° C.
Experimental: as §1, §2, §3

[13] = test system: S. pyogenes* GC4563 (Clinical); assay: MIC broth microdilution, S. pyogenes GC4563 (Clinical); type: cell-based; conditions: 18-22 hours at 35° C.
Experimental: as §1, §2, §3

[14] = test system: S. aureus GC2216 (ATCC Control); assay: MIC broth microdilution, S. aureus GC2216 (ATCC Control); type: cell-based; conditions: MHBII, 18-22 hours at 35° C.
Experimental: as §1, §2, §3

[15] = test system: Staphylococcal aureus Smith M P; assay: In vivo antibacterial evaluation, acute lethal infection in mice; conditions: Mus musculus, iv, 168 h; single intraveneous dose; female CD-1 mice; 7 day survival ratios, 3 tests pooled; read-out: SIV* ED50
[16] = test system: S. pneumoniae* GC4465 (Clinical); assay: MIC broth microdilution, S. pneumoniae GC4465 (Clinical); type: cell-based; conditions: 18-22 hours at 35° C.
Experimental: as §1, §2, §3

[17] = test system: S. aureus GC1131 (Clinical); assay: MIC broth microdilution, S. aureus GC1131 (Clinical); type: cell-based; conditions: MHBII, 18-22 hours at 35° C.
Experimental: as §1, §2, §3

[18] = test system: S. aureus GC4536 (Smith MP -In Vivo); assay: MIC broth microdilution, S. aureus GC4536 (Smith MP -In Vivo); type: cell-based; conditions: MHBII, 18-22 hours at 35° C.
Experimental: as §1, §2, §3

[19] = test system: Staphylococcal aureus Smith M P; assay: In vivo antibacterial evaluation, acute lethal infection in mice; conditions: Mus musculus; single oral dose 30 minutes after intraperitoneal challenge; female CD-1 mice; 7 day survival ratios, 3 tests pooled; read-out: SOD* ED50
Experimental: In Vivo Antibacterial Evaluation: The therapeutic effects of representative examples of the invention are determined against acute lethal infection with Staphylococcal aureus Smith M P, Female mice, strain CD-1 (Charles River Laboratoties), ca. 20 grams, are challenged by an intraperitoneal injection of sufficient bacteria (suspended in broth or hog mucin) to kill non-treated controls within 24-28 hours. Antibacterial agents, contained in 0.5 ml of 0.2% aqueous agar, are administered subcutaneously or orally 30 minutes after injection. When an oral dosing schedule is used, animal are deprived of food for 5 hours before and 2 hours after injection. Five mice are treated at each dose level. The 7 day survival ratios from 3 separate tests are pooled for calculation of median effective dose (ED50).

[20] = test system: E. faecalis GC2242 (Van-resistant); assay: MIC broth microdilution, E. faecalis GC2242 (Van-resistant); type: cell-based; conditions: MHBII, 18-22 hours at 35° C.
Experimental: as §1, §2, §3

[21] = test system: E. coli GC4559 (parent GC4560); assay: MIC broth microdilution, E. coli GC4559 (parent GC4560); type: cell-based; conditions: MHBII, 18-22 hours at 35° C.
Experimental: as §1, §2, §3

| Structure (SMILES) | minimum inhibitory concentration (MIC) [1] | minimum inhibitory concentration (MIC) [2] | minimum inhibitory concentration (MIC) [3] | minimum inhibitory concentration (MIC) (E. coli GC2270 (tet(M))) | MIC [4] [µg/mL] | minimum inhibitory concentration (MIC) [5] | minimum inhibitory concentration (MIC) [6] | minimum inhibitory concentration (MIC) (E. coli GC1073 (tet(B))) | minimum inhibitory concentration (MIC) [7] | minimum inhibitory concentration (MIC) [8] | minimum inhibitory concentration (MIC) [9] | minimum inhibitory concentration (MIC) [10] | minimum inhibitory concentration (MIC) [11] | minimum inhibitory concentration (MIC) [12] | minimum inhibitory concentration (MIC) [13] | minimum inhibitory concentration (MIC) [14] | ED50 [15] [mg/kg] | minimum inhibitory concentration (MIC) [16] | minimum inhibitory concentration (MIC) [17] | minimum inhibitory concentration (MIC) [18] | further results |
| --- | --- | --- | --- | --- | --- | --- | --- | --- | --- | --- | --- | --- | --- | --- | --- | --- | --- | --- | --- | --- | --- |
| CN(C)c1cc(NC(=O)CNOC(C)(C)C)c(O)c2c1C[C@H]1C[C@H]3[C@H](N(C)C)C(O)=C(C(N)=O)C(=O)[C@@]3(O)C(O)=C1C2=O [Example 4, (4S,4aS,5aR,12aS)-9-{[N-(tert-butoxy)glycyl]amino}-4,7-bis(dimethylamino)-3,10,12,12a-tetrahydroxy-1,11-dioxo-1,4,4a,5,5a,6,11,12a-octahydrotetracene-2-carboxamide] | 1 | 8 | 0.50 | 8 | 4 (≈ 6.65 µM) | >64 | 16 | 16 | 0.50 | 8 | 2 | >64 | 1 | 0.25 | 0.12 | 1 | 0.25 to 1 | 0.25 | 1 | 1 | ED50 [19]: 1.1 mg/kg; minimum inhibitory concentration (MIC) [20]: 1; minimum inhibitory concentration (MIC) [21]: 16 |
| CN(C)c1cc(NC(=O)CN(O)Cc2ccccc2)c(O)c2c1C[C@H]1C[C@H]3[C@H](N(C)C)C(O)=C(C(N)=O)C(=O)[C@@]3(O)C(O)=C1C2=O [Example 6, (4S,4aS,5aR,12aS)-9-[(N-benzyl-N-hydroxyglycyl)amino]-4,7-bis(dimethylamino)-3,10,12,12a-tetrahydroxy-1,11-dioxo-1,4,4a,5,5a,6,11,12a-octahydrotetracene-2-carboxamide] | 1 | 16 | 0.25 | 16 | 2 (≈ 3.15 µM) | >64 | 8 | 32 | 0.50 | 8 | 2 | 64 | 2 | 0.25 | 0.25 | 2 | > 4 | 0.12 | 4 | 2 | ED50 [19]: > 16 mg/kg; minimum inhibitory concentration (MIC) [20]: 2; minimum inhibitory concentration (MIC) [21]: 8 |
| CONCC(=O)Nc1cc(N(C)C)c2c(c1O)C(=O)C1=C(O)[C@]3(O)C(=O)C(C(N)=O)=C(O)[C@@H](N(C)C)[C@@H]3C[C@@H]1C2 [Example 5, (4S,4aS,5aR,12aS)-4,7-bis(dimethylamino)-3,10,12,12a-tetrahydroxy-9-[(N-methoxyglycyl)amino]-1,11-dioxo-1,4,4a,5,5a,6,11,12a-octahydrotetracene-2-carboxamide] | 1 | 2 | 0.25 | 4 | 1 (≈ 1.79 µM) | >64 | 2 | 4 | 0.25 | 4 | 2 | 4 | 1 | 0.25 | 0.25 | 1 | 0.5 to 1 | 0.12 | 1 | 1 | ED50 [19]: 16 to 32 mg/kg; minimum inhibitory concentration (MIC) [20]: 2; minimum inhibitory concentration (MIC) [21]: 4 |
| CN(C)c1cc(NC(=O)CN(O)C(C)(C)C)c(O)c2c1C[C@H]1C[C@H]3[C@H](N(C)C)C(O)=C(C(N)=O)C(=O)[C@@]3(O)C(O)=C1C2=O [Example 3, (4S,4aS,5aR,12aS)-9-{[N-(tert-butyl)-N-hydroxyglycyl]amino}-4,7-bis(dimethylamino)-3,10,12,12a-tetrahydroxy-1,11-dioxo-1,4,4a,5,5a,6,11,12a-octahydrotetracene-2-carboxamide] | 4 | 32 | 1 | >64 | 1 (≈ 1.66 µM) | >64 | 8 | >64 | 2 | 8 | 8 | 16 | 4 | 1 | 0.50 | 4 | 2 to 4 | 1 | 4 | 4 | ED50 [19]: > 32 mg/kg; minimum inhibitory concentration (MIC) [20]: 8; minimum inhibitory concentration (MIC) [21]: >64 |
